Where two headings read alike, the source gives them in different places.
Key:
Assay type in all cases: biochemical
MAPK2/ERK2 = MAPK2/ERK2 (Homo sapiens, UniProt P28482); test: MAPK2/ERK2 33P kinase assay; details: read-out: MAPK2/ERK2 activity as percentage of control without inhibitor
Experimental: (§1) All assays (25.5 μl) were carried out at room temperature (21° C.) and were linear with respect to time and enzyme concentrations under the conditions used. Assays were performed for 30 minutes except assays for LCK and PKB which were performed for 15 minutes using Multidrop Micro reagent dispensers (Thermo Electron Corporation, Waltham, Mass. 02454, USA) in a 96-well format. The concentration of […] [γ-^33P] ATP (800 cpm/pmol) in the assays was one of three concentrations (5, 20 or 50 μM) in order to be at or below Km for ATP for the enzyme. Assays were initiated with MgATP and stopped by addition of 5 μl of 0.5M orthophosphoric acid. Assays were then harvested onto P81 filterplates using a unifilter harvester (PerkinElmer, Boston, Mass. 02118, USA), with a wash buffer of 50 mM orthophosphoric acid. Filterplates were then air dried overnight. 10 μl of Microscint O was added per well prior to counting for radioactivity.
(§2) MKK1, JNK/SAPK1c, SAPK2a/p38, SAPK2b/p38β2, SAPK3/p38γ, SAPK4/p38δ, MAPK2/ERK2, MAPKAP-K1β, MAPKAP-K2, MSK1, PRAK, PKA, PKCα, PDK1, SGK, p70S6K, GSK3β, ROCK-II, PRK2, AMPK, CHK1, CHK2, CK2, PHK, LCK, were assayed according to Davies et al., (Davies, S. P., Reddy, H., Caivano, M. and Cohen, P. Biochem. J. 351, 95-105, 2000.
(§3) CSK and CDK2/cyclinA, were assayed according to Bain et al. (Bain J, McLauchlan H, Elliott M, Cohen P. Biochem J. 371, 199-204, 2003., except that ATP concentrations were either 5, 20 or 50 micromolar so that they were at or below the Km for ATP. The ATP concentrations used were as follows, 5 μM for assays of MKK1, SAPK3, SAPK4, GSK3β, PRK2 CK2 20 μm for assays of JNK, SAPK2β, MAPKAP-K2, MSK1, PRAK, PKA, […], PDK1, SGK, p70S6K, ROCK-II, CHK1, CHK2, CSK, CDK2, and 50 μM for assays of SAPK2a, MAPK2/ERK2, AMPK, LCK, PHK and MAPKAP-K1β.

SAPK2b/p38β2 = SAPK2b/p38β2 (Homo sapiens, UniProt Q15759); test: SAPK2b/p38β2 33P kinase assay; details: read-out: SAPK2b/p38β2 activity as percentage of control without inhibitor; for remaining activity at 1 µM: inhibitor 1 μM
Chain of SAPK2b/p38β2 (Q15759 whole entry): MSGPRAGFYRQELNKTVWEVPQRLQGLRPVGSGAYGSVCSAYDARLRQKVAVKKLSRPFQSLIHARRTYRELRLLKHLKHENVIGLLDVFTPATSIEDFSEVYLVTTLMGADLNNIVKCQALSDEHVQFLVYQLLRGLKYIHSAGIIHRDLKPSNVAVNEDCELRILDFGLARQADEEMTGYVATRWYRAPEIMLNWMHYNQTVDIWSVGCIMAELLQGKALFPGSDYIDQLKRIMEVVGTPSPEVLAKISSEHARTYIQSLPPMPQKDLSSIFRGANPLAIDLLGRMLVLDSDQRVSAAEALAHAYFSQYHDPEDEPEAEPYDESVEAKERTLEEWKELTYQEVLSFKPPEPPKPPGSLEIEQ
Experimental: as §1, with “Assays” for “All assays (25.5 μl) were carried out at room temperature (21° C.) and were linear with respect to time and enzyme concentrations under the conditions used. Assays”
as §2, §3

NEK2a = target: T1, NEK2a (Homo sapiens, UniProt P51955); test: NEK2a 33P kinase assay; details: read-out: NEK2a activity as percentage of control without inhibitor
T1 sequence (P51955 1-445): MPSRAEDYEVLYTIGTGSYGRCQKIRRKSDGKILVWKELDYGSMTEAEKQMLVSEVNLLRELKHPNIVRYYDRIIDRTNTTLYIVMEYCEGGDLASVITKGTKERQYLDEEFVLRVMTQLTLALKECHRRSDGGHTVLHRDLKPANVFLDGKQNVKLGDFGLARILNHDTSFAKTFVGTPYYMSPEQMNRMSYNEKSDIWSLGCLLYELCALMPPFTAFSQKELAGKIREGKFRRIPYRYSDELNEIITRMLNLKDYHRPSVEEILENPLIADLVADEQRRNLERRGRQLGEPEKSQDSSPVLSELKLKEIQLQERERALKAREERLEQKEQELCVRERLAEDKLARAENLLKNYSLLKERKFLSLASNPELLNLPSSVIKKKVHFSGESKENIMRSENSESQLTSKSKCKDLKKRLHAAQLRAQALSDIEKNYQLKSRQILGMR
Experimental: as §1
5-20 mU of NEK2a (diluted in 50 mM Tris (pH 7.5), 0.1 mM EGTA, 1 mg/ml BSA, 0.1%, β-Mercaptoethanol) is assayed against NEK2a peptide ([…]) in a final volume of 25.5 μl containing 50 mM Tris (pH 7.5), 0.1 mM EGTA, 0.01% Brij, 0.1%, β-Mercaptoethanol, 300 μM NEK2a peptide, 10 mM magnesium acetate and 0.05 mM [^33P- γATP](500-1000 cpm/pmole) and incubated for 30 mins at room temperature.

AMPK = AMPK 33P kinase assay
Experimental: as §1, §2, §3

PHK = PHK 33P kinase assay
Experimental: as §1, §2, §3

Chain of MAPK2/ERK2 (P28482 whole entry): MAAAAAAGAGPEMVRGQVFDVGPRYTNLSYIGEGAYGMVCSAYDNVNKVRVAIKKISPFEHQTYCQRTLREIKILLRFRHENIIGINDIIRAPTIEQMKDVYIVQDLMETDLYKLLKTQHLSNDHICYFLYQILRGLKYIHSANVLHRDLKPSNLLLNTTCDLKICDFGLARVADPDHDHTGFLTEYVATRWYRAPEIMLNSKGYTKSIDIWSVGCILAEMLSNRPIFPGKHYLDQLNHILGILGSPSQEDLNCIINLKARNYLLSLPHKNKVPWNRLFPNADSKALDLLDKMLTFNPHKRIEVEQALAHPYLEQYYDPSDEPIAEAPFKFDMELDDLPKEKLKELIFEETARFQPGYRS

SMILES	remaining activity at 1 µM (MAPK2/ERK2) [%]	remaining activity at 10 µM (MAPK2/ERK2) [%]	remaining activity at 10 µM (SAPK2b/p38β2) [%]	remaining activity at 1 µM (NEK2a) [%]	remaining activity at 10 µM (NEK2a) [%]	AMPK activity as percentage of control without inhibitor (AMPK; inhibitor 1 μM) [%]	AMPK activity as percentage of control without inhibitor (AMPK; inhibitor 10 μM) [%]	PHK activity as percentage of control without inhibitor (PHK; inhibitor 1 μM) [%]	PHK activity as percentage of control without inhibitor (PHK; inhibitor 10 μM) [%]	remaining activity at 1 µM (MAPK2/ERK2; inhibitor 1 μM) [%]	remaining activity at 10 µM (MAPK2/ERK2; inhibitor 10 μM) [%]	remaining activity at 1 µM (SAPK2b/p38β2) [%]	remaining activity at 10 µM (SAPK2b/p38β2; inhibitor 10 μM) [%]	remaining activity at 1 µM (NEK2a; inhibitor 1 μM) [%]	remaining activity at 10 µM (NEK2a; inhibitor 10 μM) [%]
COc1ccc2c(c1)[nH]c1c(C)nccc12 [Harmine]	98	89	87	106	111	98	103	103	82	–	–	–	–	–	–
COc1ccc2c3c([nH]c2c1)C(C)=NCC3 [Harmaline]	–	–	–	–	–	97	83	73	88	80	89	91	93	69	109
CC1=NCCc2c1[nH]c1cc(O)ccc21 [Harmalol]	–	–	–	–	–	92	52	101	63	88	85	88	79	104	83

Source: US20100063085A1, “METHOD OF TREATING LEARNING IMPAIRMENT IN DOWN'S SYNDROME SUBJECTS” (University Court of The University of Dundee, priority 2008, published 2010)
